Reference: publication PMC4836799, “Experimental and Theoretical Evaluation of the Ethynyl Moiety as a Halogen Bioisostere” (ACS Chemical Biology, 2015)
Several values for one entry are separate records, joined by “and”; a condition that tells them apart may be missing. Equal values may be shown once.

Assays:
[1] = target: T1, p53-Y220C DNA-binding domain (Homo sapiens, UniProt P04637, M133L/N239Y/N268D/V203A/Y220C); test: Competition ITC with PK5174 (1) as coupling ligand
T1 construct: made in house
Experimental: We assessed the binding of 3 to the stabilized DNA-binding domain of the p53 mutant Y220C (residues 94–312) using an array of biophysical techniques. […] Because the competition titration could not be performed at a c-value of 2 or higher, it was not possible to reliably decompose ΔG into ΔH and ΔS.[25]
All ITC experiments were conducted using a Microcal iTC200 calorimeter as previously described.[14] Briefly, protein and compounds were dissolved in 25 mM KPi, pH 7.2, 150 mM NaCl, 1 mM TCEP in 5% (v/v) DMSO. The cell unit contained 80 μM protein, and 2 mM compound was used for the syringe. The ITC competition experiment was conducted using 500 μM of compound 3 and 50 μM protein for the cell sample and 2 mM of compound 1 in the syringe. The actual and apparent binding constants for 1 were calculated with MicroCal Origin software using a standard one-site model. The binding constant of 3 was then calculated using an equation for ITC displacement titrations described by Zhang and Zhang[24] [drawing 2]

[2] = target: T2, T-p53C-Y220C (Homo sapiens, UniProt P04637, M133L/N239Y/N268D/V203A/Y220C); test: Differential scanning fluorimetry (DSF); type: binding; conditions: 10 μM protein
T2 construct: made in house
Experimental: The effect of compounds on the melting temperature of T-p53C-Y220C were monitored using SYPRO Orange (Invitrogen, USA) as a fluorescent probe, which quantitatively binds to hydrophobic protein patches exposed upon thermal denaturation. Real-time melt analysis was performed using a Corbett Rotor-Gene 6000 real-time qPCR thermocycler. Excitation and emission filters were set to 460 and 510 nm, respectively. Heating from 28 to 60 °C, a constant heating rate of 270 K/h was applied. The protein (final concentration of 10 μM) was briefly mixed with SYPRO orange (10x) in buffer (25 mM KPi pH 7.2, 150 mM NaCl, 1 mM TCEP), and compound (5 mM) dissolved in DMSO was added to give a final compound concentration of 250 μM in 5% (v/v) DMSO. The melting temperature (Tm) of the protein (10 μM) in the presence of compounds was determined from the inflection point of the melting curve. Melting temperatures were compared with control samples without compound (yielding ΔTm DSF). All samples were measured in triplicate.

- Kd ([1]; competition with PK5174 (1), 500 μM compound 3, equation of Zhang and Zhang, read-out: KD determined indirectly by competition ITC): ~270 µM and 271 µM
- loss in affinity ([1]; ethynyl compound 3 versus iodo compound 2): approximately 13 fold
Structure (SMILES): C#Cc1cc(C#CCOc2ccccc2)cc(CN2CCC(N(CC)CC)CC2)c1O [PK5211, 2-((4-(diethylamino)piperidin-1-yl)methyl)-6-ethynyl-4-(3-phenoxyprop-1-ynyl)phenol]
- thermal stabilization of the mutant protein (Tm) [2]: concentration-dependent thermal stabilization
- thermal stabilization of the mutant protein (Tm) ([2]; listed as 3): concentration-dependent increase of the protein melting point
